Starred links: 1 amine or outer side, 2 acyl side, 3 side chain; linkers in the order of their positions; H or OH if unused. Non-standard residues stand in square brackets, D forms with d. Residues, ends and D or L forms follow the SMILES beside them. Arg(Nω,Nω'-propylene) = N[C@@H](CCCNC1=NCCCN1)C(=O)O; dPro(cis-4-NH2) = N[C@H]1CN[C@@H](C(=O)O)C1; X4 = Cn1ccnc1CNCCC[C@H](N[*:1])C(=O)[*:2]; Tiq1c(1S) = O=C(O)[C@H]1NCCc2ccccc21; Tic = O=C(O)[C@@H]1Cc2ccccc2CN1
Target: T1, CXCR7 (Homo sapiens, UniProt P25106)
T1 construct: host or cells: CHO (PathHunter CHO-CXCR7 β-arrestin cells)
Experiment: CXCR7 β-arrestin recruitment assay (PathHunter CHO-CXCR7, DiscoverX), agonistic assay
Assay type: cell-based
Settings: agonistic assay; CHO CXCR7 β-arrestin cells; 90 min at 37° C.; chemiluminescence; read-out: β-Arrestin EC50
Method in brief: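 CHO cells co-expressing CXCR7 and β-arrestin (PathHunter), seeded overnight, then exposed to serially diluted compounds at 1% DMSO for 90 min at 37 °C; SDF-1 served as positive agonist control. Enzyme-fragment complementation detection developed 90 min at room temperature, read by chemiluminescence.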

T1 sequence (P25106 whole entry): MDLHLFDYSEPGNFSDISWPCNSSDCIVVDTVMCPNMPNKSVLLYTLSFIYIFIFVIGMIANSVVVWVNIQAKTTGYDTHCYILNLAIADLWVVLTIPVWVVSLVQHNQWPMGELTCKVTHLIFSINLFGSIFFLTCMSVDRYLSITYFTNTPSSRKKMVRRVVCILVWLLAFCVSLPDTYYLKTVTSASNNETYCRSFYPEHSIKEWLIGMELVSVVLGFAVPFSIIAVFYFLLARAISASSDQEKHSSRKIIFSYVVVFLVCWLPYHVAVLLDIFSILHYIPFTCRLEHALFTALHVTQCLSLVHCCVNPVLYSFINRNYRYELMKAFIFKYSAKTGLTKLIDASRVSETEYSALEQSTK

| EC50 [nM] | Compound |
| --- | --- |
| 181 ± 62.9 | N=C(N)NCCC[C@@H]1NC(=O)[C@H](Cc2c[nH]c3ccccc23)NC(=O)[C@@H](Cc2ccccc2)NC(=O)[C@H](CCCNC2=NCCCN2)NC(=O)[C@@H]2Cc3ccccc3CN2C(=O)[C@H]2C[C@@H](N)CN2C1=O [compound 77, cyclo(-Orn(A56)-^DPhe-Trp-Arg-^DPro((4R)NH2)-Tic-)] (cyclo(R[dPro(cis-4-NH2)][Tic][Arg(Nω,Nω'-propylene)][dF]W)) |
| 145 ± 10.9 | Cn1ccnc1CNCCC[C@@H]1NC(=O)[C@H](Cc2c[nH]c3ccccc23)NC(=O)[C@@H](Cc2ccccc2)NC(=O)[C@H](Cc2c[nH]c3ccccc23)NC(=O)[C@@H]2Cc3ccccc3CN2C(=O)[C@H]2C[C@@H](N)CN2C1=O [compound 78, cyclo(-Trp-^DPhe-Trp-Orn(Ar7)-^DPro((4R)NH2)-Tic-)] (cyclo([Tic]W[dF]W[X4][dPro(cis-4-NH2)])) |
| 46.9 ± 12.5 | N[C@@H]1C[C@@H]2C(=O)N3CCc4ccccc4[C@H]3C(=O)N[C@@H](Cc3c[nH]c4ccccc34)C(=O)N[C@H](Cc3ccccc3)C(=O)N[C@@H](Cc3c[nH]c4ccccc34)C(=O)N[C@@H](CCCNC3=NCCCN3)C(=O)N2C1 [compound 79, cyclo(-Trp-^DPhe-Trp-Orn(A56)-^DPro((4R)NH2)-Tiq-)] (cyclo(W[dF]W[Arg(Nω,Nω'-propylene)][dPro(cis-4-NH2)][Tiq1c(1S)])) |
| 33.4 ± 0.8 | N[C@@H]1C[C@@H]2C(=O)N3Cc4ccccc4C[C@H]3C(=O)N[C@@H](Cc3c[nH]c4ccccc34)C(=O)N[C@H](Cc3ccccc3)C(=O)N[C@@H](Cc3c[nH]c4ccccc34)C(=O)N[C@@H](CCCNC3=NCCCN3)C(=O)N2C1 [compound 80, cyclo(-Trp-^DPhe-Trp-Orn(A56)-^DPro((4R)NH2)-Tic-)] (cyclo([Tic]W[dF]W[Arg(Nω,Nω'-propylene)][dPro(cis-4-NH2)])) |
